Results as given in PubChem BioAssay (NCI).
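Cells were grown in 96-well plates and exposed to each compound for 48 hours at five concentrations; endpoints were interpolated linearly between bracketing concentrations, or set to the highest concentration if not reached. TGI: concentration producing complete growth inhibition.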

Tested on: MALME-3M melanoma
Assay: DTP human tumour cell line panel, 48 h

Compound	TGI
COc1cc2nc3n(c(=O)c2cc1OC)-c1ccc([N+](=O)[O-])cc1C3=O	> 100 µM
CC(=O)OC1CC(OC2C(O)CC(OC3C(O)CC(OC4CCC5(C)C(CCC6C5CC(O)C5(C)C(C7=CC(=O)OC7)CCC65O)C4)OC3C)OC2C)OC(C)C1OC1OC(CO)C(O)C(O)C1O (stereo unspecified)	0.249 µM
Nc1nc(SCCc2ccccc2)c2[nH]cnc2n1	> 100 µM
Cc1ccc(-c2n[nH]c(=O)n2N2C(=O)c3ccccc3C2=O)cc1	> 100 µM
COc1cc2c(c(OC)c1OC)C(=O)[C@@H]1[C@H]2N1C(N)=O	> 100 µM
COC(=O)C1SC(SC)=NC12c1ccccc1Nc1ccccc12 (stereo unspecified)	65.1 µM
CCOC(=O)C1(C/C=C/CBr)Cc2ccccc2C1=O (stereo unspecified)	7.43 µM
CN1CCc2cc(N)cc3c2C1Cc1ccc(O)c(O)c1-3 (stereo unspecified)	88.2 µM
O=C1CCCSC(=O)N1Cc1ccccc1	> 100 µM
COC(=O)c1c(C)cccc1C1CN=NC12Cc1ccc(C)cc1C2=O (stereo unspecified)	> 100 µM
N#Cc1c(-c2ccccc2)/c(=C\Nc2cccc(C(F)(F)F)c2)c(=O)n2c1nc1ccccc12	> 100 µM
S=C1Nc2ccccc2SC1c1ccccc1 (stereo unspecified)	> 100 µM
COC(=O)c1ccccc1CC1Cc2ccc3c(c2C1=O)CCCC3 (stereo unspecified)	> 82.5 µM
CN1CCN(C2=NCCO2)CC1	> 100 µM
c1ccc(N=c2sc3ccccc3nc2Nc2ccccc2)cc1	> 100 µM
O=C1/C(=C/c2ccccc2)N=C2Sc3c(nc[nH]c3=O)N12	> 100 µM
C=CC1(C)CCC2C(=CCC3C2(C)CC(O)C(O)C3(C)COC2OC(C(=O)O)C(O)C(O)C2O)C1 (stereo unspecified) (tested in a mixture with another compound)	> 100 µM
N#Cc1c(N2CCCC2)ncn(-c2ccccc2)c1=O	> 100 µM
N#CC1(C#N)N[C@@H](c2ccsc2)[C@H]2C(=O)N(c3ccccc3)C(=O)[C@H]21	> 100 µM
O=[N+]([O-])c1ccc2c(c1)/C(=N/N=C1c3ccccc3Cc3ccccc31)c1cc([N+](=O)[O-])cc([N+](=O)[O-])c1-2	6.46 µM
Cc1ccc([N+](=O)[O-])cc1NC1=NCCO1	> 100 µM
CC(C)=CCc1c2c(c3occ(-c4ccc(O)cc4)c(=O)c3c1O)CC(C(C)(C)O)O2 (stereo unspecified)	36.3 µM
CCOC(=O)C(SCCO)C(C(=O)OCC)n1cnc2c(=O)[nH]c(NC(C)=O)nc21 (stereo unspecified)	> 100 µM
COc1cc(C2c3cc4c(cc3OC(N3CCOCC3)C2C)OCO4)ccc1O (stereo unspecified)	> 100 µM
Cc1ccccc1C(=O)N1CCc2c([nH]c3ccccc23)C1	81.5 µM
CC[C@@H]1CC[C@@H]2[C@H](CC[C@]3(C)[C@@H](OC(C)=O)CC[C@@H]23)[C@H]1COC(C)=O	35.8 µM
NS(=O)(=O)c1ccc2c(c1)OCCOCCOCCOCCO2	> 100 µM
COC(=O)c1cc(=O)nc2sc3cccc(C)c3n12	70.1 µM

Tested on: SK-MEL-28 melanoma
Assay: DTP human tumour cell line panel, 48 h

Compound	TGI
O=C1CSC(c2ccc(Cl)cc2)N1c1ccc(Oc2ccc(Cl)cc2)c(Cl)c1 (stereo unspecified)	35.4 µM
Cc1ccc(C(=O)O)cc1S(=O)(=O)Nn1cnc2ccc(S(=O)(=O)Nc3ccccc3C(=O)O)cc2c1=O	> 100 µM
CCCCCCc1cc2cc(-c3csc(CC#N)n3)c(=O)oc2cc1O	> 100 µM
C=C1C(=O)O[C@@H]2C(=O)[C@@H](C)CCC/C(C)=C/CC[C@@]3(C)O[C@@H]3C[C@@H]12	> 100 µM
COc1cc(Br)cc2cc(-c3cn4ccsc4n3)c(=O)oc12	> 100 µM
C[C@]12CCC(O)CC1=CC[C@@H]1[C@@H]2CC[C@]2(C)C(=O)[C@H](n3ccnc3)C[C@@H]12 (stereo partly specified)	> 100 µM
O=c1[nH]c(Nc2cccc(CC(F)(F)F)c2)nc2nc[nH]c12	> 100 µM
COc1ccc(-c2cc(O)c3nc4ccccc4n3c2)cc1	> 100 µM
O=C1CC(NC(=O)C(F)(F)F)c2c(Br)sc(N3CCNCC3)c21 (stereo unspecified)	> 100 µM
COc1cc2nc3n(c(=O)c2cc1OC)-c1ccc([N+](=O)[O-])cc1C3=O	> 100 µM
CC(=O)OC1CC(OC2C(O)CC(OC3C(O)CC(OC4CCC5(C)C(CCC6C5CC(O)C5(C)C(C7=CC(=O)OC7)CCC65O)C4)OC3C)OC2C)OC(C)C1OC1OC(CO)C(O)C(O)C1O (stereo unspecified)	0.979 µM
Nc1nc(SCCc2ccccc2)c2[nH]cnc2n1	> 100 µM
Cc1ccc(-c2n[nH]c(=O)n2N2C(=O)c3ccccc3C2=O)cc1	> 100 µM
COc1cc2c(c(OC)c1OC)C(=O)[C@@H]1[C@H]2N1C(N)=O	> 100 µM
COC(=O)C1SC(SC)=NC12c1ccccc1Nc1ccccc12 (stereo unspecified)	48.5 µM
CCOC(=O)C1(C/C=C/CBr)Cc2ccccc2C1=O (stereo unspecified)	20.8 µM
CN1CCc2cc(N)cc3c2C1Cc1ccc(O)c(O)c1-3 (stereo unspecified)	> 100 µM
O=C1CCCSC(=O)N1Cc1ccccc1	> 100 µM
COC(=O)c1c(C)cccc1C1CN=NC12Cc1ccc(C)cc1C2=O (stereo unspecified)	> 100 µM
N#Cc1c(-c2ccccc2)/c(=C\Nc2cccc(C(F)(F)F)c2)c(=O)n2c1nc1ccccc12	> 100 µM
S=C1Nc2ccccc2SC1c1ccccc1 (stereo unspecified)	> 100 µM
COC(=O)c1ccccc1CC1Cc2ccc3c(c2C1=O)CCCC3 (stereo unspecified)	> 100 µM
CN1CCN(C2=NCCO2)CC1	> 100 µM
